Literature values in article PMC12150326 (The Journal of Organic Chemistry, 2025).
“And” between values parts separate entries of the source, which are not always exact repeats. Equal values may be shown once. Read-outs that look alike come from different tables or passages of the source.

Tests used:
Design in all cases: method as in NCI-60 database
NCI 60 cell lines = details: cited from earlier work; for _MID Log10LC50: mean graph midpoint ref NCI-60 database
SR = SR ref NCI-60 database, cited from earlier work
HOP-62 = HOP-62 ref NCI-60 database, cited from earlier work
NCI-H460 = NCI-H460 ref NCI-60 database, cited from earlier work
HCT-15 = HCT-15 ref NCI-60 database, cited from earlier work
SF-268 = SF-268 ref NCI-60 database, cited from earlier work
SF-295 = SF-295 ref NCI-60 database, cited from earlier work
SNB-75 = SNB-75 ref NCI-60 database, cited from earlier work
MALME-3M = MALME-3M ref NCI-60 database, cited from earlier work
M14 = M14 ref NCI-60 database, cited from earlier work
SK-MEL-2 = SK-MEL-2 ref NCI-60 database, cited from earlier work
OVCAR-4 = OVCAR-4 ref NCI-60 database, cited from earlier work
ACHN = ACHN ref NCI-60 database, cited from earlier work
DU-145 = DU-145 ref NCI-60 database, cited from earlier work
DMS 114 = DMS 114 ref NCI-60 database, cited from earlier work
DLD-1 = DLD-1 ref NCI-60 database, cited from earlier work
M19-MEL = M19-MEL ref NCI-60 database, cited from earlier work
[1] = mean graph ref NCI-60 database, listed as 757/1
[2] = mean graph ref NCI-60 database, listed as 757/9

For COc1cc2c(c(OC)c1OC)-c1ccc(OC)c(=O)cc1[C@@H](NC(C)=O)CC2 [Colchicine, (−)-Colchicine], the “_MID Log10LC50” value (NCI 60 cell lines; listed as 757/1) is given as -4.07 Molar and -4.08 Molar, the “_MID Log10LC50” value (NCI 60 cell lines; listed as 757/21) is given as -4.0 Molar and -4.12 Molar and -4.01 Molar and the “Delta Log10GI50” value (NCI 60 cell lines; [1]) is given as 0.39 and 0.68. The “Delta Log10LC50” value (NCI 60 cell lines; [1]) was 3.26 and 3.02, the “Delta Log10TGI” value (NCI 60 cell lines; [1]) was 3.04 and 2.76 and the “Range Log10GI50” value (NCI 60 cell lines; [1]) was 3.72. For the same compound, the “Range Log10LC50” value (NCI 60 cell lines; [1]) was 3.33 and 3.1, the “Range Log10TGI” value (NCI 60 cell lines; [1]) was 3.41 and the “Range Log10GI50” value (NCI 60 cell lines; [2]) was 1.41. The “Range Log10LC50” value (NCI 60 cell lines; [2]) was 4.0, the “Range Log10TGI” value (NCI 60 cell lines; mean graph ref NCI-60 database, listed as 757/21) was 3.89 and the GI50 (SR) was 30 nM. For the same compound, the Log10GI50 (SR) was -7.49 Molar, the Log10LC50 (SR) was > -4.00 Molar and the Log10GI50 (SR; listed as 757/9) was < -8.00 Molar. The Log10TGI (SR; listed as 757/9) was -7.47 Molar, the Log10TGI (SR; listed as 757/21) was > -4.00 Molar and the Log10LC50 (HOP-62) was > -4.00 Molar. The Log10TGI (HOP-62) was > -4.00 Molar, the Log10GI50 (HOP-62; listed as 757/9) was -7.43 Molar and the GI50 (NCI-H460) was 20 nM. For the same compound, the Log10GI50 (NCI-H460) was -7.65 Molar, the Log10LC50 (NCI-H460) was > -4.00 Molar and the Log10TGI (NCI-H460; listed as 757/9) was -7.12 Molar. For the same compound, the Log10GI50 (NCI-H460; listed as 757/21) was -7.62 Molar and -7.50 Molar and -7.65 Molar, the GI50 (HCT-15) was 210 nM and the Log10GI50 (HCT-15) was -6.68 Molar. The Log10LC50 (HCT-15; listed as 757/9) was -5.60 Molar, the Log10LC50 (HCT-15; listed as 757/21) was > -4.00 Molar and the GI50 (SF-268) was 4680 nM. For the same compound, the Log10GI50 (SF-268) was -5.33 Molar, the Log10LC50 (SF-268) was > -4.00 Molar and the Log10GI50 (SF-268; listed as 757/9) was -7.12 Molar. The Log10TGI (SF-268; listed as 757/9) was -6.03 Molar, the Log10TGI (SF-268; listed as 757/21) was > -4.00 Molar and the Log10GI50 (SF-295; listed as 757/1) was < -8.00 Molar and -7.70 Molar. The Log10LC50 (SF-295; listed as 757/1) was -4.51 Molar, the Log10GI50 (SF-295; listed as 757/9) was -7.68 Molar and -7.69 Molar and the Log10TGI (SF-295; listed as 757/9) was -7.30 Molar. For the same compound, the Log10GI50 (SF-295; listed as 757/21) was -7.88 Molar and -7.77 Molar, the Log10LC50 (SF-295; listed as 757/21) was > -4.00 Molar and the Log10TGI (SF-295; listed as 757/21) was -7.39 Molar and -7.37 Molar. For the same compound, the GI50 (SNB-75) was 910 nM, the Log10GI50 (SNB-75) was -6.04 Molar and the Log10LC50 (SNB-75) was > -4.00 Molar. The Log10GI50 (SNB-75; listed as 757/1) was < -8.00 Molar, the Log10TGI (SNB-75; listed as 757/1) was -5.53 Molar and the Log10TGI (SNB-75; listed as 757/9) was < -8.00 Molar. The Log10TGI (SNB-75; listed as 757/21) was > -4.00 Molar, the Log10LC50 (MALME-3M) was > -4.00 Molar and the Log10GI50 (MALME-3M; listed as 757/1) was -7.28 Molar. For the same compound, the Log10GI50 (MALME-3M; listed as 757/9) was -7.97 Molar, the GI50 (M14) was 55 nM and the Log10GI50 (M14) was -7.26 Molar. For the same compound, the Log10LC50 (M14) was > -4.00 Molar, the Log10GI50 (M14; listed as 757/9) was -7.68 Molar and the Log10TGI (M14; listed as 757/9) was -6.43 Molar. The GI50 (SK-MEL-2) was < 10 nM, the Log10GI50 (SK-MEL-2) was < -8 Molar and the Log10LC50 (SK-MEL-2) was > -4.00 Molar. The Log10GI50 (SK-MEL-2; listed as 757/1) was -7.53 Molar, the Log10TGI (SK-MEL-2; listed as 757/1) was < -8.00 Molar and the Log10GI50 (SK-MEL-2; listed as 757/21) was < -8.00 Molar. For the same compound, the Log10TGI (SK-MEL-2; listed as 757/21) was > -4.00 Molar, the GI50 (OVCAR-4) was 93300 nM and the Log10GI50 (OVCAR-4) was -4.03 Molar. For the same compound, the Log10LC50 (OVCAR-4) was > -4.00 Molar, the Log10TGI (OVCAR-4) was > -4.00 Molar and the Log10GI50 (OVCAR-4; listed as 757/1) was -4.45 Molar. For the same compound, the GI50 (ACHN) was 372 nM, the Log10GI50 (ACHN) was -6.43 Molar and the Log10LC50 (ACHN) was > -4.00 Molar. For the same compound, the Log10TGI (ACHN) was > -4.00 Molar, the Log10GI50 (ACHN; listed as 757/21) was -6.40 Molar and -6.43 Molar and the GI50 (DU-145) was 8320 nM. The Log10GI50 (DU-145) was -5.08 Molar, the Log10LC50 (DU-145) was > -4.00 Molar and the Log10GI50 (DU-145; listed as 757/9) was -7.29 Molar. The Log10TGI (DU-145; listed as 757/9) was -5.83 Molar, the Log10GI50 (DU-145; listed as 757/21) was -5.08 Molar and the Log10TGI (DU-145; listed as 757/21) was > -4.00 Molar. For the same compound, the Log10LC50 (DMS 114) was > -4.00 Molar, the Log10GI50 (DMS 114; listed as 757/1) was -4.75 Molar and the Log10GI50 (DMS 114; listed as 757/21) was < -8.00 Molar. For the same compound, the Log10TGI (DMS 114; listed as 757/21) was -7.73 Molar and -7.65 Molar, the Log10LC50 (DLD-1) was > -4.00 Molar and the Log10TGI (DLD-1) was > -4.00 Molar. The Log10GI50 (DLD-1; listed as 757/1) was -7.35 Molar, the Log10LC50 (M19-MEL) was > -4.00 Molar and the Log10TGI (M19-MEL) was > -4.00 Molar. The Log10GI50 (M19-MEL; listed as 757/21) was < -8.00 Molar.
